Experimental data taken from patent US6395768B1, “Uses for indole-3-propionic acids and salts and esters thereof” (South Alabama Medical Science Foundation, priority 1998, dated 2002).

How the values were obtained:
Aβ (1-40) = Aβ (1-40) (Homo sapiens, UniProt P05067); assay: Aβ fibrillogenesis, thioflavin T fluorescence (β sheet formation); format: biochemical; settings: 150 μM Aβ (1-40), 300 μM IPA, sodium salt
Experimental: As a control, the ultrapure water used to dissolve the IPA containing an equivalent amount of sodium chloride was added to 150 μM Aβ (1-40) at a pH of 7. In one experiment, each of the solutions (i.e., the solution containing IPA and the control solution) was incubated for 24 hours. In a second experiment, each of the solutions was incubated for 48 hours. At the end of each incubation period, 50 mM glycine-NaOH buffer (pH 9.2) containing 2 μM thioflavin T was added to each sample (5 μL) to a final volume of 2 mL. Fluorescence, which is a direct measure of β sheet formation, was measured at an excitation wavelength of 435 nm and an emission wavelength of 485 nm using a Hitachi F-2000 fluorescence spectrometer. The average and standard deviations of the mean of 3 samples per condition were determined, and the results are presented (as bar graphs) in FIG. 6A (24 hour incubation) and FIG. 6B (48 hour incubation).

PC12 cells = assay: Lipid peroxidation (malondialdehyde levels) in cells exposed to Aβ or DDTC; format: cell-based, rat; settings: PC12 cells exposed to amyloid peptide Aβ(1-42) or DDTC, with IPA; FIG. 4
Description: In order to investigate the possibility that the cytoprotective properties of IPA are also the result, at least in part, of anti-oxidant activity, the -levels of malondialdehyde (“MDA”), a marker of lipid peroxidation, in PC12 cells exposed to Aβ or to oxidative stress were examined. Oxidative stress was delivered by exposing cells to […] (“DDTC”), an inhibitor of superoxide dismutase and an established model of oxidative injury. The PC12 cells were exposed to either amyloid peptide alone or amyloid peptide along with IPA. In other experiments, the cells were exposed to either DDTC alone or DDTC with IPA.

PC12 neuroblastoma cells = assay: Prevention of cell death induced by oxidative stress (DDTC, superoxide dismutase inhibition); format: cell-based, rat; settings: varying amounts of DDTC and IPA, FIG. 5
Experimental: To further confirm the observations shown in Example 4, we studied whether IPA was effective in preventing death of cells exposed to oxidative stress (DDTC). PC12 neuroblastoma cells were treated with varying amounts of DDTC, with or without varying amounts of IPA. The anti-oxidant activity of IPA is shown by preventing cell death of neurblastoma cells induced by inhibition of the superoxide dismutase by DDTC.

[1] = tested on: human neuroblastoma cell line SK-N-SH; assay: Cytoprotection against Aβ(25-35) toxicity, cell viability; format: cell-based; settings: SK-N-SH cells, 50 μM Aβ (25-35), 50 μM compound; FIG. 1
Experimental: To illustrate the cytoprotective affects of IPA against the cytotoxic effects of Aβ, cells of the human neuroblastoma cell line SK-N-SH were used. These cells were exposed to 50 μM Aβ (25-35), the actively toxic fragment of Aβ (Yankner et al., 1990) with or without 50 μM of IPA. As a control, the experiments were repeated without Aβ. As a positive control, the well-known anti-oxidant, phenyl-N-t-butylnitrone (“PBN”) was substituted for IPA.

Chain of Aβ (1-40) (P05067 672-711): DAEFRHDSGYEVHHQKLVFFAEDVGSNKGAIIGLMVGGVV

| Structure (SMILES) | thioflavin T fluorescence (β sheet formation) relative to control (Aβ (1-40); pH 7, 24 hour incubation, FIG. 6A) | thioflavin T fluorescence (β sheet formation) relative to control (Aβ (1-40); pH 7, 48 hour incubation, FIG. 6B) | production of malondialdehyde (MDA), marker of lipid peroxidation (PC12 cells) | survival of cells exposed to DDTC (PC12 neuroblastoma cells) | protective activity against cytotoxic effect of Aβ (viability, percent) [1] |
| --- | --- | --- | --- | --- | --- |
| O=C(O)CCc1c[nH]c2ccccc12 [IPA, indole-3-propionic acid] | significantly less | significantly less | significantly decreases the production of malondialdehyde | increases the survival of cells exposed to DDTC |  |
| CC(C)(C)[N+]([O-])=Cc1ccccc1 [PBN, phenyl-N-t-butylnitrone] |  |  |  |  | strong protective activity |
